Source: PubChem BioAssay (NCI)
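Cultured in 96-well plates, cells were exposed to test compound for 48 hours across five concentrations. Here, GI50 denotes the concentration required for 50% inhibition of growth. TGI: concentration producing complete growth inhibition.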

Assays:
Test in all cases: inhibition of tumour cell growth, NCI panel, 48 h
HOP-62 NSCLC = test system: HOP-62 NSCLC
CAKI-1 renal = test system: CAKI-1 renal
BT-549 breast = test system: BT-549 breast
SK-MEL-28 melanoma = test system: SK-MEL-28 melanoma
NCI/ADR-RES ovarian = test system: NCI/ADR-RES ovarian
OVCAR-8 ovarian = test system: OVCAR-8 ovarian
HS 578T breast = test system: HS 578T breast
SW-620 colon = test system: SW-620 colon
NCI-H460 lung = test system: NCI-H460 lung
IGROV1 ovarian = test system: IGROV1 ovarian
HOP-92 NSCLC = test system: HOP-92 NSCLC
A498 renal = test system: A498 renal
LOX IMVI melanoma = test system: LOX IMVI melanoma
HCT-15 colon = test system: HCT-15 colon
ACHN renal = test system: ACHN renal
OVCAR-4 ovarian = test system: OVCAR-4 ovarian
NCI-H226 lung = test system: NCI-H226 lung
786-0 renal = test system: 786-0 renal
MOLT-4 leukemia = test system: MOLT-4 leukemia
COLO 205 colon = test system: COLO 205 colon
SK-MEL-5 melanoma = test system: SK-MEL-5 melanoma
M14 melanoma = test system: M14 melanoma
MCF7 breast = test system: MCF7 breast
SN12C renal = test system: SN12C renal
EKVX NSCLC = test system: EKVX NSCLC
A549 NSCLC = test system: A549 NSCLC
UACC-257 melanoma = test system: UACC-257 melanoma
HT29 colon = test system: HT29 colon
SK-OV-3 ovarian = test system: SK-OV-3 ovarian
K-562 leukemia = test system: K-562 leukemia
NCI-H522 lung = test system: NCI-H522 lung
SK-MEL-2 melanoma = test system: SK-MEL-2 melanoma
SF-295 CNS = test system: SF-295 CNS
RPMI-8226 leukemia = test system: RPMI-8226 leukemia
T-47D breast = test system: T-47D breast
MALME-3M melanoma = test system: MALME-3M melanoma
CCRF-CEM leukemia = test system: CCRF-CEM leukemia
UACC-62 melanoma = test system: UACC-62 melanoma
OVCAR-5 ovarian = test system: OVCAR-5 ovarian
U251 CNS = test system: U251 CNS
UO-31 renal = test system: UO-31 renal
RXF 393 renal = test system: RXF 393 renal
MDA-MB-435 = test system: MDA-MB-435
KM12 colon = test system: KM12 colon
SNB-75 CNS = test system: SNB-75 CNS
HCT-116 colon = test system: HCT-116 colon
SR leukemia = test system: SR leukemia
HCC-2998 colon = test system: HCC-2998 colon
HL-60(TB) leukemia = test system: HL-60(TB) leukemia
MDA-MB-231 breast = test system: MDA-MB-231 breast
PC-3 prostate = test system: PC-3 prostate
DU-145 prostate = test system: DU-145 prostate
SF-539 CNS = test system: SF-539 CNS
NCI-H23 lung = test system: NCI-H23 lung
SNB-19 CNS = test system: SNB-19 CNS
SF-268 CNS = test system: SF-268 CNS
OVCAR-3 ovarian = test system: OVCAR-3 ovarian
TK-10 renal = test system: TK-10 renal

SMILES: COc1ccc2c(c1)C(=O)c1c-2n(CCCNCCO)c(=O)c2ccccc12
- GI50 (HOP-62 NSCLC): 57.5 nM
- TGI (HOP-62 NSCLC): 462 nM
- GI50 (CAKI-1 renal): 107 nM
- TGI (CAKI-1 renal): 659 nM
- GI50 (BT-549 breast): 127 nM
- TGI (BT-549 breast): 672 nM
- GI50 (SK-MEL-28 melanoma): 897 nM
- TGI (SK-MEL-28 melanoma): 2490 nM
- GI50 (NCI/ADR-RES ovarian): 807 nM
- TGI (NCI/ADR-RES ovarian): 3380 nM
- GI50 (OVCAR-8 ovarian): 90.8 nM
- TGI (OVCAR-8 ovarian): 1900 nM
- GI50 (HS 578T breast): 262 nM
- TGI (HS 578T breast): 2240 nM
- GI50 (SW-620 colon): 53 nM
- TGI (SW-620 colon): 1460 nM
- TGI (NCI-H460 lung): 137 nM
- GI50 (IGROV1 ovarian): 150 nM
- TGI (IGROV1 ovarian): 2330 nM
- GI50 (HOP-92 NSCLC): 87 nM
- TGI (HOP-92 NSCLC): 531 nM
- GI50 (A498 renal): 80.7 nM
- TGI (A498 renal): 520 nM
- GI50 (LOX IMVI melanoma): 47.3 nM
- TGI (LOX IMVI melanoma): 224 nM
- GI50 (HCT-15 colon): 154 nM
- TGI (HCT-15 colon): 1180 nM
- GI50 (ACHN renal): 39.7 nM
- TGI (ACHN renal): 240 nM
- GI50 (OVCAR-4 ovarian): 301 nM
- TGI (OVCAR-4 ovarian): 2230 nM
- GI50 (NCI-H226 lung): 486 nM
- TGI (NCI-H226 lung): 2310 nM
- GI50 (786-0 renal): 67.8 nM
- TGI (786-0 renal): 568 nM
- GI50 (MOLT-4 leukemia): < 18.2 nM
- TGI (MOLT-4 leukemia): 5280 nM
- GI50 (COLO 205 colon): 74.6 nM
- TGI (COLO 205 colon): 1650 nM
- GI50 (SK-MEL-5 melanoma): 63.4 nM
- TGI (SK-MEL-5 melanoma): 202 nM
- GI50 (M14 melanoma): 320 nM
- TGI (M14 melanoma): 1480 nM
- GI50 (MCF7 breast): < 11.5 nM
- TGI (MCF7 breast): 434 nM
- GI50 (SN12C renal): 118 nM
- TGI (SN12C renal): 1420 nM
- GI50 (EKVX NSCLC): 349 nM
- TGI (EKVX NSCLC): 1500 nM
- GI50 (A549 NSCLC): 62.6 nM
- TGI (A549 NSCLC): 310 nM
- GI50 (UACC-257 melanoma): 541 nM
- TGI (UACC-257 melanoma): 2130 nM
- GI50 (HT29 colon): 76.4 nM
- TGI (HT29 colon): 1760 nM
- GI50 (SK-OV-3 ovarian): 218 nM
- TGI (SK-OV-3 ovarian): 1420 nM
- GI50 (K-562 leukemia): 121 nM
- GI50 (NCI-H522 lung): 17.4 nM
- TGI (NCI-H522 lung): 95.5 nM
- GI50 (SK-MEL-2 melanoma): 734 nM
- TGI (SK-MEL-2 melanoma): 2570 nM
- GI50 (SF-295 CNS): 61.7 nM
- TGI (SF-295 CNS): 425 nM
- GI50 (RPMI-8226 leukemia): 72.7 nM
- TGI (RPMI-8226 leukemia): 594 nM
- GI50 (T-47D breast): 56 nM
- TGI (T-47D breast): 1620 nM
- GI50 (MALME-3M melanoma): 178 nM
- TGI (MALME-3M melanoma): 1240 nM
- GI50 (CCRF-CEM leukemia): 22.7 nM
- TGI (CCRF-CEM leukemia): 1050 nM
- GI50 (UACC-62 melanoma): 312 nM
- TGI (UACC-62 melanoma): 1850 nM
- GI50 (OVCAR-5 ovarian): 346 nM
- TGI (OVCAR-5 ovarian): 1110 nM
- GI50 (U251 CNS): 82.1 nM
- TGI (U251 CNS): 1170 nM
- GI50 (UO-31 renal): 90.4 nM
- TGI (UO-31 renal): 618 nM
- GI50 (RXF 393 renal): 963 nM
- TGI (RXF 393 renal): 3950 nM
- GI50 (MDA-MB-435): 322 nM
- TGI (MDA-MB-435): 1620 nM
- GI50 (KM12 colon): 200 nM
- TGI (KM12 colon): 1240 nM
- GI50 (SNB-75 CNS): 261 nM
- TGI (SNB-75 CNS): 1250 nM
- GI50 (HCT-116 colon): 79.9 nM
- TGI (HCT-116 colon): 534 nM
- GI50 (SR leukemia): < 20.7 nM
- TGI (SR leukemia): 1800 nM
- GI50 (HCC-2998 colon): 109 nM
- TGI (HCC-2998 colon): 479 nM
- GI50 (HL-60(TB) leukemia): 169 nM
- TGI (HL-60(TB) leukemia): 1690 nM
- GI50 (MDA-MB-231 breast): 543 nM
- TGI (MDA-MB-231 breast): 2330 nM
- GI50 (PC-3 prostate): 272 nM
- TGI (PC-3 prostate): 2290 nM
- GI50 (DU-145 prostate): 46.9 nM
- TGI (DU-145 prostate): 331 nM
- GI50 (SF-539 CNS): 76.4 nM
- TGI (SF-539 CNS): 408 nM
- GI50 (NCI-H23 lung): 120 nM
- TGI (NCI-H23 lung): 563 nM
- GI50 (SNB-19 CNS): 117 nM
- TGI (SNB-19 CNS): 1060 nM
- GI50 (SF-268 CNS): 120 nM
- TGI (SF-268 CNS): 1430 nM
- GI50 (OVCAR-3 ovarian): 331 nM
- TGI (OVCAR-3 ovarian): 1410 nM
- GI50 (TK-10 renal): 316 nM
- TGI (TK-10 renal): 3030 nM

SMILES: CNC(=O)N(C1=NCC(C)S1)c1ccc(C)c(C)c1 (configuration not stated)
- TGI (HOP-62 NSCLC): > 100000 nM
- TGI (CAKI-1 renal): 20600 nM
- TGI (BT-549 breast): > 100000 nM
- TGI (SK-MEL-28 melanoma): > 92800 nM
- TGI (NCI/ADR-RES ovarian): > 20400 nM
- TGI (OVCAR-8 ovarian): 45700 nM
- TGI (HS 578T breast): > 100000 nM
- TGI (SW-620 colon): > 100000 nM
- TGI (NCI-H460 lung): 42600 nM
- TGI (IGROV1 ovarian): > 100000 nM
- TGI (HOP-92 NSCLC): > 29500 nM
- TGI (A498 renal): 17000 nM
- TGI (LOX IMVI melanoma): > 48500 nM
- TGI (HCT-15 colon): > 54000 nM
- TGI (ACHN renal): > 76500 nM
- TGI (OVCAR-4 ovarian): > 100000 nM
- TGI (NCI-H226 lung): > 100000 nM
- TGI (786-0 renal): > 48800 nM
- TGI (MOLT-4 leukemia): > 59200 nM
- TGI (COLO 205 colon): > 44600 nM
- TGI (SK-MEL-5 melanoma): 19100 nM
- TGI (M14 melanoma): > 42300 nM
- TGI (MCF7 breast): 26600 nM
- TGI (SN12C renal): > 87200 nM
- TGI (EKVX NSCLC): 70400 nM
- TGI (A549 NSCLC): > 100000 nM
- TGI (UACC-257 melanoma): > 78100 nM
- TGI (HT29 colon): 12700 nM
- TGI (SK-OV-3 ovarian): > 93000 nM
- TGI (K-562 leukemia): > 20100 nM
- TGI (NCI-H522 lung): 17100 nM
- TGI (SK-MEL-2 melanoma): 15500 nM
- TGI (SF-295 CNS): > 73600 nM
- TGI (RPMI-8226 leukemia): 15100 nM
- TGI (T-47D breast): > 100000 nM
- TGI (MALME-3M melanoma): 55200 nM
- TGI (CCRF-CEM leukemia): > 62800 nM
- TGI (UACC-62 melanoma): > 100000 nM
- TGI (OVCAR-5 ovarian): > 100000 nM
- TGI (U251 CNS): > 36800 nM
- TGI (UO-31 renal): > 78700 nM
- TGI (RXF 393 renal): 8310 nM
- TGI (MDA-MB-435): 3490 nM
- TGI (KM12 colon): > 55700 nM
- TGI (SNB-75 CNS): > 24700 nM
- TGI (HCT-116 colon): > 76800 nM
- TGI (SR leukemia): > 71700 nM
- TGI (HCC-2998 colon): 24100 nM
- TGI (HL-60(TB) leukemia): 4100 nM
- TGI (MDA-MB-231 breast): > 100000 nM
- TGI (PC-3 prostate): > 55000 nM
- TGI (DU-145 prostate): > 100000 nM
- TGI (SF-539 CNS): > 25600 nM
- TGI (NCI-H23 lung): > 100000 nM
- TGI (SNB-19 CNS): > 100000 nM
- TGI (SF-268 CNS): 40600 nM
- TGI (OVCAR-3 ovarian): 8400 nM
- TGI (TK-10 renal): > 68200 nM
